Source: paper PMC9323422 (Angewandte Chemie (International Ed. in English), 2022)

Columns and labels:
[1] = Determination of partition coefficients DCM/water; format: physicochemical; details: 24 h, room temperature
[2] = tested on: PTP1B; details: cited from earlier work
[3] = pH 2
[4] = target: T1, Recombinant human PTP1B (Homo sapiens, UniProt P18031); format: biochemical
T1 sequence (P18031 1-435): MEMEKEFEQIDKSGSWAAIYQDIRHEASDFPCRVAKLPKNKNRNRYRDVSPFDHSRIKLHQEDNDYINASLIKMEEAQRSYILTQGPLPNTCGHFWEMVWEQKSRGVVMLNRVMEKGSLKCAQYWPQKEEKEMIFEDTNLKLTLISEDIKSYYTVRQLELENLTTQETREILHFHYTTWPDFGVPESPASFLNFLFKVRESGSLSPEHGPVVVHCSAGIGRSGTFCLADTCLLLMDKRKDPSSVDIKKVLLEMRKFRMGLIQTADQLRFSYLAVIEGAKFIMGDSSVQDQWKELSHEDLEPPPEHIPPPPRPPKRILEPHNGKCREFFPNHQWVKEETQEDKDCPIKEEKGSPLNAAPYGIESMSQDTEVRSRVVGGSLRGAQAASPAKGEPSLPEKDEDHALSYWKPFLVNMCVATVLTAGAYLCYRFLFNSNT

[5] = Irradiation experiment; format: physicochemical; details: 365 nm, 2 h, room temperature, isopropanol/water (70 : 30)

For FC(F)(c1ccccc1)[P-](F)(F)(F)(F)F [Compound 2], which “Percent compound in DCM (organic phase)” value [1] is on record?
The value was 37%.

And the “affinity, inhibition of PTP1B phosphatase activity” value [2]?
Its value is “low, millimolar affinity”.

For NC(Cc1ccc(C(F)(F)[P-](F)(F)(F)(F)F)cc1)C(=O)O (stereo not drawn) [Compound 3, 4‐pentafluoro‐phosphato‐difluoromethyl‐phenylalanine], which “stability of the pentafluorophosphate anion” value [3] is on record?
The value was “stable”.

What about the Ki [4] of the same compound?
The Ki was 61 ± 8 µM.

And the “increase of affinity to PTP1B relative to phosphonate amino acid 1” value [4]?
The value was 25 fold.

For CNC(=O)C(Cc1ccc(C(F)(F)[P-](F)(F)(F)(F)F)cc1)NC(C)=O (stereo not drawn) [Compound 10], which “Percent compound in DCM (organic phase)” value [1] is on record?
The value was 16%.

What does the source list for NC(Cc1ccc(C(=O)[P-](F)(F)(F)(F)F)cc1)C(=O)O (stereo not drawn) [Compound 12, 4‐(pentafluorophosphato‐carbonyl)‐phenylalanine]?
photostability on irradiation [5]: photoconversion of the PF5 residue; Ki [4]: 52 ± 7 µM; increase of affinity to PTP1B relative to phosphonate amino acid 1 [4]: 30 fold
